Eight compounds from patent publication US20240390355A1, “IRHOM2 INHIBITORS AND USES THEREOF” (NEW YORK SOCIETY FOR THE RELIEF OF THE RUPTURED AND …, priority 2021, published 2024) can be followed below.

Type in all cases: cell-based
Assay [1] concerns TNFα release from THP-1 cells. Put plainly: Primary screen (Example 1b): LPS-stimulated TNFα release from THP-1 cells, overnight pre-incubation, HTRF. The note with it: Homo sapiens, overnight with inhibitor, 100 ng/mL LPS, 3 h, normalised to 10 μM Batimastat. The procedure: (§1) Two separate screens to identify novel small molecule inhibitors of iRhom2/ADAM17 activity were developed. […] Therefore, the primary screen for small molecule inhibitors of iRhom2/ADAM17 was a screen for inhibitors that blocked the release of TNFα from LPS-stimulated THP-1 human myeloid cells, a process that depends on iRhom2 and ADAM17. Since the release of TNFα from THP-1 cells can be blocked at many stages of the LPS/TLR4/iRhom2/ADAM17 pathway, a secondary screen was performed for another iRhom2/ADAM17 selective substrate, Kit-ligand 2 (KL-2) (Maretzky T et al. (July 2013), “iRhom2 controls the substrate selectivity of stimulated ADAM17-dependent ectodomain shedding”, PNAS 110(28): 11433-11438) in a different human cell type, human embryonic kidney cells (HEK 293).
THP-1 cells were plated in low volume 384 wells (10,000 cells per well in 12.6 μL RPMI medium) together with inhibitors or 10 μM BB94 and incubated over night. The next day, TNFα shedding was initiated by stimulation of THP-1 cells with 100 ng/mL LPS (1.8 μL of an 800 ng/mL LPS stock) for 3 hrs at 37° C. The extent of released TNFα was detected with the corresponding HTRF antibodies labeled with europium cryptate (donor) and d2 (acceptor). The HTRF signal was generated by proximity of europium cryptate and d2. All detection reagents were purchased from Cisbio. TNFα detection was performed according to the manufacturer's protocol (Product Insert for Cisbio TNFα (h) Kit Part #62HTNFAPEG & 62HTNFAPEH;
Low volume 384 well plates were pre-coated with small molecule library compounds for a final concentration of 20 μM in a 15 μL reaction, or 0.75 μL of 200 μM stock of BB94 in 5% DMSO (final concentration 0.25%). 12.6 μL of cell suspension [8E5/mL; 10,000 cells/well; culture RPMI medium] and pre-incubated at 37° C., 5% CO2, over night. The next day, 1.8 μL of an 800 ng/mL LPS stock was added [final concentration 100 ng/mL in 15 μL assay] and the cells were incubated at 37° C., 5% CO2, for 3 h. Subsequently, 3 μL of the HTRF-mix [used at 1:3 dilution of cisbio HTRF human TNF] was added and the plates were incubated for an additional 2 hrs at 25° C. After an incubation at room temperature for 2 h, the HTRF readout was performed. Then data evaluation for normalization against the 10 μM Batimastat control (=100% […]) was applied.
(In general: TR-FRET usually uses a lanthanide donor and a delayed reading to cut background.)

Assay [2] has as its system KL2 release from HEK-293 cells. Put plainly: Secondary screen (Example 3b): PMA-stimulated KL2 release from HEK-293 cells, AP readout. The note with it: Homo sapiens, HEK293, HEK-293 cells expressing KL2-AP, PMA 100 ng/mL, 2 h, read-out: Secondary Screen IC50 KitL2. The procedure: as §1
(§2) Expression plasmids for alkaline phosphatase (AP)-fused human KL2 and TGFα had been previously designed and generated through gene synthesis followed by subcloning into the pcDNA3.1(+)/Hygro expression vector. […] Subsequently, DNA amplifications were performed to obtain sufficient amounts of the expression vectors. The quality of DNA and gene sequences were confirmed through restriction digest and Sanger sequencing. In parallel, cell culture of HEK-293 cells was initiated. Master and working cell banks were prepared, scaled up and transfected with the respective constructs by electroporation. During cell culturing, cell density and viability were monitored to ensure optimal conditions for the transfections. After PMA stimulation, AP-coupled KL2 or TGFα were detected by measurement of AP activity in the supernatant.
(§3) After electroporation, cells were further cultured in presence of selection antibiotics, hygromycin B, to generate stably transfected polyclonal cell pools. For both assays, KL2 and TGFα shedding, the respective selected pool turned out to be suitable. Final assay conditions were determined for the selected pools. For all experiments, batimastat (BB94, 10 μM) was used as positive control for full inhibition of KL2 or TGFα shedding.
(§4) The wells of sterile 384-well flat bottom clear plates for KL2-AP assays were coated with 10 μL of 0.1 mg/mL poly-d-lysine for 3-4 hr at 25° C. or overnight at 4° C., then washed 2× with PBS and patted dry. 60 μL of cells (40,000/well) were added to the sterile 384-well plate and incubated in Optimem (with 2% FCS and 1% Pen-strep) overnight at 37° C. (5% CO2). After incubation overnight, 55 μL medium were removed with a BioTek EL406 and 10 μL of prediluted compounds were added to the cells for a final concentration of 20 μM. After incubation for 15 min, 15 μL of PMA (100 ng/mL final conc.) were added. The cells were incubated for 2 h at 37° C. (5% CO2). Then, the plates were centrifuged for 5 min at 1000 rpm and 3 μL of the supernatant was transferred to a fresh 384 well plate and 9 μL of AP Balance Buffer was added per well. 12 μL of pNPP p-nitrophenyl phosphate (final 1 M pNPP) was added. AP reaction was performed for 1 h at 37° C. The reaction was stopped by addition of 12 μL of NaOH (1 M final conc.), the plates were centrifuged to remove air bubbles and the absorbance of pNP was measured at 405 nm.

For assay [3], the system named is TGFα release from HEK-293 cells. The experiment in a line: Counter screen (Example 4b): PMA-stimulated TGFα release from HEK-293 cells, AP readout. The note with it: Homo sapiens, HEK293, HEK-293 cells expressing TGFα-AP, PMA 100 ng/mL, 2 h. The procedure:
A tertiary counterscreen was also performed to monitor the release of TGFα, which is a substrate of iRhom1/ADAM17 and iRhom2/ADAM17, so its release should not be blocked by an iRhom2-selective inhibitor (Maretzky T et al. (July 2013), “iRhom2 controls the substrate selectivity of stimulated ADAM17-dependent ectodomain shedding”, PNAS 110(28): 11433-11438; and Li X et al. (May 2015), “iRhoms 1 and 2 are essential upstream regulators of ADAM17-dependent EGFR signaling”, PNAS 112(19): 6080-6085).
as §2, §3
as §4, with “for TGF-AP” for “for KL2-AP”, “cells (20,000/well)” for “cells (40,000/well)”, “and 12” for “and 3”, “well plate.” for “well plate and 9 μL of AP Balance Buffer was added per well.”

As usually defined, the IC50 is the concentration that inhibits the measured activity by half.

Regarding `Cc1ccsc1C1Nc2ccc3ccccc3c2C2=C1C(=O)CCC2` (stereo not drawn) [Compound 45], the IC50 was over 32 µM in assay [1], 28 µM in assay [2] and over 40 µM in assay [3].
As to `Cc1cc(NCCCn2ccnc2)n2ncc(-c3ccc(Cl)cc3)c2n1` [Compound 48], the IC50 in assay [1] is 13.2 µM; in assay [2] it was over 40 µM; in assay [3], over 40 µM.
As to `Cc1cc(C)c2nc(N3CCNCC3)sc2c1` [Compound 49], the IC50 was 13.2 µM in assay [1], over 40 µM in assay [2] and over 40 µM in assay [3].
With `O=C(NCCc1cccnc1)c1ccc(-c2cc(-c3ccc(N4CCCCC4)cc3)n[nH]2)cc1` [Compound 44], the IC50 is 10.8 µM in assay [1], over 40 µM in assay [2] and over 40 µM in assay [3].
In the case of `O=C1Nc2ccccc2/C1=N\Nc1nc(Nc2ccccc2)nc(Nc2ccccc2)n1` [Compound 46], the figures for the IC50 in assay [1], in assay [2] and in assay [3] were 2.72 µM, 11.1 µM and over 40 µM, respectively.
On the same counts, the results for `O=C(c1c(Cl)cccc1Cl)N1CCC(Cc2ccc3c(c2)OCO3)CC1` [Compound 43] are 3.97 µM, 35.2 µM and over 40 µM.
In the case of `Cc1ccccc1Nc1nc(NCCCO)nc2c1cnn2-c1ccccc1` [Compound 50], the results for the IC50 in assay [1], in assay [2] and in assay [3] were 10.9 µM, 16.1 µM and over 40 µM, respectively.
Take `O=C(NC1CCCCCCC1)C1CCCN(c2nc3ccc(Br)cc3[nH]2)C1` (stereo not drawn) [Compound 47]: the IC50 is 2.41 µM in assay [1], 5.52 µM in assay [2] and over 40 µM in assay [3].
